Assay results: patent US20060286574A1 (priority 2005, published 2006)

What was measured:
E. coli [1] = type: cell-based; conditions: for enhancement of the activity of ciprofloxacin: at 25 μM
E. coli ΔrecB strains = type: cell-based; conditions: putative ΔrecB transductants and parental ΔrecB strain
K. pneumoniae = type: in vivo; conditions: mice; wild type vs ΔrecB K. pneumoniae; 0.064-15 mg/kg/day ciprofloxacin; 48 hour endpoint; FIG. 6
E. coli [2] = test system: E. coli
E. coli [3] = assay: Effect of gam expression on ciprofloxacin efficacy in E. coli; type: cell-based
P. aeruginosa = assay: Effect of gam expression on ciprofloxacin efficacy in P. aeruginosa; type: cell-based

Molecule: Cn1c2ccccc2n2c3ncccc3c(=O)c(C#N)c12 [Formula IIb]
- enhancement of the activity of ciprofloxacin (E. coli [1]): enhanced the activity of ciprofloxacin

Molecule: Cn1c2ccccc2n2c3cnccc3c(=O)c(C#N)c12 [Formula IIc]
- enhancement of the activity of ciprofloxacin (E. coli [1]): enhanced the activity of ciprofloxacin

Molecule: Nc1ccc2noc3c2c1C(=O)c1ccccc1-3 [Formula Ia]
- MIC shift in ciprofloxacin responsiveness (E. coli [1]): 10 ×

Molecule: CO[C@@]12[C@H](COC(N)=O)C3=C(C(=O)C(C)=C(N)C3=O)N1C[C@@H]1N[C@@H]12 [Mitomycin C]
- Mitomycin C MIC of ΔrecB strains, lower compared to recB+ strains (E. coli ΔrecB strains): about 8 fold

Molecule: O=C(O)c1cn(C2CC2)c2cc(N3CCNCC3)c(F)cc2c1=O [ciprofloxacin]
- reduction in CFU in thigh (log CFU/gm of thigh) (K. pneumoniae): significantly greater reduction in CFU for the recB mutants relative to the wild type strain
- cells killed (E. coli [2]): 99%

B1: lambda gam: protein used by λ phage to inhibit E. coli RecB; overexpressed from an arabinose-inducible vector (protein, UniProt P03702 1-138, looked up)
Host-nuclease inhibitor …: MDINTETEIKQKHSLTPFPVFLISPAFRGRYFHSYFRSSAMNAYYIQDRLEAQSWARHYQQLAREEKEAELADDMEKGLPQHLFESLCIDHLQRHGASKKSITRAFDDDVEFQERMAEHIRYMVETIAHHQVDIDSEV
- effect of lambda gam overexpression on ciprofloxacin sensitivity (E. coli [3]; strain lacking the RecB target (RTC0148) relative to empty vector strain (RTC0147)): no effect
- decrease in the ciprofloxacin IC50 on overexpression of lambda gam (E. coli [3]; wild-type E. coli (RTC0142) and gyrA(S83L) (RTC0144) relative to empty vector controls (RTC0141, RTC0143)): 5-8 fold
- effect of lambda gam overexpression on ciprofloxacin sensitivity (P. aeruginosa; strain lacking the RecB target (RTC1019) relative to empty vector strain (RTC1016)): no effect
- decrease in the ciprofloxacin MIC on overexpression of lambda gam (P. aeruginosa; wild-type P. aeruginosa (RTC1017) and gyrA(S831) mutant (RTC1018) relative to empty vector controls (RTC1014, RTC1015)): 2-4 fold
